# Experimental data: patent EP4570800A1, “CRYSTAL FORM OF PYRIDINOPYRIMIDINONE COMPOUND, ACID SALT THEREOF, CRYSTAL FORM OF ACID SALT THEREOF, AND USE” (Wuhan Humanwell Innovative Drug Research and Development …, priority 2022, dated 2024)
# Counter-ions that a name gives are not always drawn.
# Key:
# [1] = test system: Mia Paca-2 pancreatic cancer; assay: In vivo efficacy test on Mia Paca-2 pancreatic cancer; set-up: species or system mice; conditions: Mia Paca-2, BID
# Description: (§1) After one week of adaptive feeding of mice, Mia Paca-2 cells in a logarithmic phase were resuspended in serum-free DMEM, and then mixed with Matrigel in a ratio of 1: 1. 1 × 10^7 Mia Paca-2 cells were inoculated subcutaneously at the right flank at 100 µL per mouse, and tumor growth was observed regularly. When the tumor grew to an average volume of 150 to 200 mm^3, the mice were randomly divided into a model group and an administration group (single drug, in combination with trametinib) based on the tumor size and body weight. The tumor size and body weight were measured and recorded before and during the administration. After the treatment, the tumor size in the model group was compared with that in the administration group to determine the efficacy.
# [2] = test system: LOVO colorectal cancer; assay: In vivo efficacy test on LOVO colorectal cancer; set-up: species or system mice; conditions: 50 mg/kg, BID
# Description: as §1, with “LOVO” for “Mia Paca-2”, “F12K, 5” for “DMEM, and then mixed with Matrigel in a ratio of 1: 1. 1”, “10^6 LOVO” for “10^7 Mia Paca-2”, “group” for “group (single drug, in combination with trametinib)”
# [3] = Solid state stability (XRPD and HPLC); type: physicochemical
# Description: The purity test, dynamic solubility test, and stability test in the assay were measured with an Agilent 1260 high-performance liquid chromatograph, and the salt formation molar ratio of ions was tested by ion chromatography, and the analytical conditions are shown in Table 5 and Table 6.
# Table 56 Summary of solid state stability evaluation
# [4] = Dynamic solubility in water, SGF, FaSSIF and FeSSIF; conditions: for S: solubility: 37°C, solid feed concentration 10 mg/mL; for pH: pH value of the filtrate
# Description: 100 mg of NaCl and 50 mg of Triton X-100 were weighed into a 50 mL volumetric flask, and purified water was added to complete dissolution. 816 µL of 1 M hydrochloric acid was added thereto, and the pH was adjusted to 1.8 with 1 M hydrochloric acid or 1 M NaOH solution. Purified water was added to make up to volume.
# 340 mg of anhydrous NaH2PO4, 42 mg of NaOH, and 620 mg of NaCl were weighed into a 100 mL volumetric flask. Purified water was added to complete dissolution. The pH was adjusted to 6.5 with 1 M hydrochloric acid or 1 M NaOH solution. Purified water was added to make up to volume. 110 mg of SIF powder was then weighed into a 50 mL volumetric flask, added with the above solution to complete dissolution and make up to volume.
# About 90 mL of purified water was added to complete dissolution, and the pH was adjusted to 5.0 with 1 M hydrochloric acid or 1 M NaOH solution. Purified water was added to make up to volume. 560 mg of SIF powder was then weighed into a 50 mL volumetric flask, added with the above solution to complete dissolution and make up to volume.
# Rotating mixing was carried out at 37°C at a solid feed concentration of 10 mg/mL (calculated as the compound of formula I). […] After sampling at each time point, the samples were centrifuged (10000 rpm) and filtered (0.45 µm PTFE filter head), and the HPLC concentration and pH value of the filtrate were measured.
# [5] = XRPD after 25°C/60%RH/open, 1 week
# [6] = XRPD after 40°C/75%RH/open, 1 week
Compound,"HPLC results Purity (area%) ([3]; 25°C/60%RH/open, 1 week)","HPLC results Purity (area%) ([3]; 40°C/75%RH/open, 1 week)",HPLC results Purity (area%) ([3]; Onset),"Crystal form [3, 5]","Crystal form [3, 6]","S: solubility ([4]; FaSSIF, 1 hour, 60 min) [µg/mL]","S: solubility ([4]; FaSSIF, 4 hours, 240 min) [µg/mL]","S: solubility ([4]; FaSSIF, 24 hours, 1440 min) [µg/mL]","S: solubility ([4]; H2O, 1 hour, 60 min) [µg/mL]","S: solubility ([4]; H2O, 4 hours, 240 min) [µg/mL]","S: solubility ([4]; H2O, 24 hours, 1440 min) [µg/mL]","S: solubility ([4]; SGF, 1 hour, 60 min) [µg/mL]","S: solubility ([4]; SGF, 4 hours, 240 min) [µg/mL]","S: solubility ([4]; SGF, 24 hours, 1440 min) [µg/mL]","pH ([4]; FaSSIF, 1 hour)","pH ([4]; FaSSIF, 4 hours)","pH ([4]; FaSSIF, 24 hours)","pH ([4]; FeSSIF, 1 hour)","pH ([4]; FeSSIF, 4 hours)","pH ([4]; FeSSIF, 24 hours)",further results
"Cc1nc(N[C@H](C)c2cccc(C(F)F)c2F)c2cn(C3(C(F)F)CC3)c(=O)cc2n1 [Control compound 2, reference compound]",,,,,,,,,,,,,,,,,,,,,Average tumor weight at the end of the treatment ([1]; 50 mg/kg): 0.46 g; At the end of treatment Average tumor weight [2]: 1.08 g
Cc1nc(N[C@H](C)c2cccc(S(F)(F)(F)(F)F)c2)c2cn(C3(CF)CC3)c(=O)cc2n1 [Crystal form A of ethanesulfonate salt],99.15,99.29,99.10,Crystal form A of ethanesulfonate salt,Crystal form A of ethanesulfonate salt,620,1610,2520,10060,9810,10080,10420,10130,10110,4.5,4.2,3.7,4.8,4.8,4.7,"S: solubility ([4]; FeSSIF, 1 hour, 60 min): 2790 µg/mL; S: solubility ([4]; FeSSIF, 4 hours, 240 min): 3620 µg/mL; S: solubility ([4]; FeSSIF, 24 hours, 1440 min): 3700 µg/mL; pH ([4]; H2O, 1 hour): 2.9; pH ([4]; H2O, 4 hours): 3.1; pH ([4]; H2O, 24 hours): 2.8; pH ([4]; SGF, 1 hour): 1.6; pH ([4]; SGF, 4 hours): 1.5; pH ([4]; SGF, 24 hours): 1.5"
Cc1nc(N[C@H](C)c2cccc(S(F)(F)(F)(F)F)c2)c2cn(C3(CF)CC3)c(=O)cc2n1 [Crystal form A of fumarate salt],98.67,98.70,98.67,Crystal form A of fumarate salt,Crystal form A of fumarate salt,360,320,320,550,570,610,1960,1940,2090,4.8,4.6,4.3,4.6,4.8,4.7,"pH ([4]; H2O, 1 hour): 4.2; pH ([4]; H2O, 4 hours): 4.2; pH ([4]; H2O, 24 hours): 4.1; pH ([4]; SGF, 1 hour): 1.8; pH ([4]; SGF, 4 hours): 2.0; pH ([4]; SGF, 24 hours): 1.7"
Cc1nc(N[C@H](C)c2cccc(S(F)(F)(F)(F)F)c2)c2cn(C3(CF)CC3)c(=O)cc2n1 [Crystal form A of methanesulfonate salt],99.21,99.26,99.18,Crystal form A of methanesulfonate salt,Crystal form A of methanesulfonate salt,1440,1610,1830,10250,10160,9920,9760,9880,10130,4.3,4.4,4.0,4.8,4.8,4.8,"S: solubility ([4]; FeSSIF, 1 hour, 60 min): 4040 µg/mL; S: solubility ([4]; FeSSIF, 4 hours, 240 min): 4160 µg/mL; S: solubility ([4]; FeSSIF, 24 hours, 1440 min): 4240 µg/mL; pH ([4]; H2O, 1 hour): 3.5; pH ([4]; H2O, 4 hours): 3.5; pH ([4]; H2O, 24 hours): 3.1; pH ([4]; SGF, 1 hour): 1.7; pH ([4]; SGF, 4 hours): 1.8; pH ([4]; SGF, 24 hours): 1.6"
Cc1nc(N[C@H](C)c2cccc(S(F)(F)(F)(F)F)c2)c2cn(C3(CF)CC3)c(=O)cc2n1 [Crystal form B of citrate salt],99.00,99.01,98.92,Crystal form A of citrate salt,Crystal form A of citrate salt,790,1180,1610,3610,3600,3680,9130,9400,9290,4.5,3.9,3.6,4.8,4.6,4.5,"S: solubility ([4]; FeSSIF, 1 hour, 60 min): 4090 µg/mL; S: solubility ([4]; FeSSIF, 4 hours, 240 min): 3520 µg/mL; S: solubility ([4]; FeSSIF, 24 hours, 1440 min): 2960 µg/mL; pH ([4]; H2O, 1 hour): 3.5; pH ([4]; H2O, 4 hours): 3.5; pH ([4]; H2O, 24 hours): 3.3; pH ([4]; SGF, 1 hour): 2.5; pH ([4]; SGF, 4 hours): 2.6; pH ([4]; SGF, 24 hours): 2.4"
CC(=O)Nc1cccc(-n2c(=O)n(C3CC3)c(=O)c3c(Nc4ccc(I)cc4F)n(C)c(=O)c(C)c32)c1 [Trametinib],,,,,,,,,,,,,,,,,,,,,Average tumor weight at the end of the treatment ([1]; 0.125 mg/kg): 0.22 g
